Measurements as given in patent US12246021B2, “Compounds for uses in pharmacological induction of HBF for treatment of sickle cell disease and ß-thalassemia” (Academia Sinica, priority 2019, dated 2025).

Legend:
[1] = system: BCL11A protein; assay: Western blot of BCL11A protein in primary human erythroid cells; format: cell-based; conditions: for expression level of BCL11A protein (in words): 3 days, AS-28 at 0.5 μM and 1 μM
Experimental: (§1) Peripheral blood samples were purchased from the Taipei Blood Center. The concentrated blood was diluted 1:5 (V/V) in phosphate-buffered saline (PBS) and distributed in a thin layer on Ficoll-paque PLUS ([…]) (GE Healthcare) in a SepMate column (STEMCELL). After centrifugation at 1200 g for 10 minutes, the cells in the inter-phase region were collected. The collected cells were washed with PBS and centrifuged at low speed three times. The remaining mononuclear cells were expanded in Phase I medium containing 1×SFEM (STEMCELL), 100 ng/ml SCF, 20 ng/ml IL-3, 20 ng/ml IL-6, and 100 ng/ml Flt3-L at 37° C. in an incubator with 5% CO2 for 7 days. The expanded mononuclear cells were further differentiated in Phase II medium containing 1×SFEM (StemSpan), 20 ng/ml SCF, 5 ng/ml IL-3, 1 U/ml EPO for another 7 days. The differentiated erythroid cells were treated with indicated compounds of different dosages with a seeding density of 5×10^5 cells/ml for another 3 days.
After 3 days of treatment, total protein was extracted by modified RIPA (50 mM Tris-HCl pH7.8, 150 mM NaCl, 1% NP-40, 0.5% sodium deoxycholate, 0.1% SDS, 1 mM EGTA, 5 mM EDTA, 10 mM NaF, 1 mM […] and 1× complete EDTA-free Protease Inhibitor Cocktail). 30 μg of protein extracts were separated by 10% SDS-PAGE and the resulting gel was blotted onto PVDF membrane. After blocking with 5% non-fat milk in TBST, the membrane was incubated overnight with primary antibody against BCL11A or β-actin at 4° C. After incubating with horseradish peroxidase-conjugated secondary antibodies and washing the blot, the signals of indicated proteins were visualized by ECL (PerkinElmer) following the manufacturer's protocol.
BCL11A has been reported as a key negative regulator of γ-globin gene expression^23. Knockdown of BCL11A dramatically increases expression of the γ-globin gene. To investigate whether HbF-inducing agents activate γ-globin gene expression by modulating BCL11A protein levels, primary human erythroid cells were treated with known HbF-inducing agents (HU, NaB, and AS-28 (0.5 μM and 1 μM)), and also Compound II, SS-2394, Compound 3, Compound 8, and then harvested for Western blot analysis (FIG. 4; FIG. 11).

[2] = Solubility of the compounds; format: physicochemical
[3] = system: γ-globin gene; assay: γ-globin mRNA induction by quantitative RT-PCR in primary human erythroid cell culture; format: cell-based; conditions: 3 days, primary human erythroid cells
Experimental: as §1, with “The expanded mononuclear cells were further differentiated in Phase II medium containing 1×SFEM (StemSpan), 20 ng/ml SCF, 5 ng/ml IL-3, 1 U/ml EPO for another 7 days. The differentiated erythroid cells were treated with indicated compounds of different dosages with a seeding density of 5×10^5 cells/ml for another 3 days.” left out
(§2) After 3 days of compound treatment, total RNA was extracted by a Quick-RNA miniprep kit (Zymo) and reverse-transcription was performed using Maxima H Minus Reverse Transcriptase (ThermoFisher Scientific) according to the manufacturer's instructions. Quantitative PCR was performed on a LightCycler system with SYBR green master mix following the manufacturer's instructions (Roche). The relative quantitative RT-PCR data was normalized to the Cq number of […] and compared to a mock control.
Compound AS-28 was designed based on the pharmacophore of the HbF-inducing compound TN1 (FIGS. 1A-1B). The efficacy of γ-globin gene induction by AS-28 treatment using a primary human erythroid cell culture system was evaluated. […]

[4] = system: primary human erythroid cells; assay: Cell viability assay (AlamarBlue) in primary human erythroid cell culture; format: cell-based; conditions: 3 days
Experimental: as §1, with “The differentiated erythroid cells were treated with indicated compounds of different dosages with a seeding density of 5×10^5 cells/ml for another 3 days.” left out
Cell viability was assessed using AlamarBlue reagent (Invitrogen). […] Cell viability was evaluated using a multi-label counter (Ex 530-560 nm, Em 590 nm) (PerkinElmer).
Compound AS-28 was designed based on the pharmacophore of the HbF-inducing compound TN1 (FIGS. 1A-1B). The efficacy of γ-globin gene induction by AS-28 treatment using a primary human erythroid cell culture system was evaluated. After two weeks of in vitro erythroid cell differentiation, cells were treated with AS-28 for three days and then harvested for quantitative RT-PCR analysis and cell viability assay.

[5] = system: γ-globin gene; assay: γ-globin mRNA induction in hydroxyurea-resistant primary human erythroid cells; format: cell-based; conditions: 0.5 μM, HU-resistant primary human erythroid cells
Experimental: as §1, with “The differentiated erythroid cells were treated with indicated compounds of different dosages with a seeding density of 5×10^5 cells/ml for another 3 days.” left out
as §2, with “control. […]” for “control.”

[6] = system: HU-resistant primary human erythroid cells; assay: Cell viability in hydroxyurea-resistant primary human erythroid cells; format: cell-based; conditions: 0.5 μM
Experimental: as §1
Cell viability was assessed using AlamarBlue reagent (Invitrogen). After 3 days of treatment, 100 μl of treated cell culture was transferred into a 96-well plate and 1/10 volume of AlamarBlue reagent was added and the cell culture was incubated overnight at 37° C. Cell viability was evaluated using a multi-label counter (Ex 530-560 nm, Em 590 nm) (PerkinElmer). […]

[7] = system: SCD mice; assay: Oral AS-28 in SCD mice: blood count, HbF HPLC, F-cells, blood smear; format: in vivo; conditions: 50, 75 or 100 mg/kg oral gavage twice per day, 5 days per week, 4 weeks
Experimental: Sickle cell disease mice (B6; 129-Hba^tm1(HBA)Tow, Hbb^tm2(HBG1,HBB*)Tow/J) were purchased from Jackson Laboratory and were bred at the AS Core, Academia Sinica. Mice of 6-8 weeks old were used for experiments. Treatment groups received vehicle [20% (2-Hydroxypropyl)-β-cyclodextrin] plus AS-28 (50 mg/kg, 75 mg/kg or 100 mg/kg), which was administered by oral gavage twice per day, 5 days per week, for 4 weeks.
Blood was collected by submandibular blood collection and analysis was performed using a ProCyte Dx automatic analyzer.
10 μl of whole blood was washed twice with PBS and then fixed with 0.05% glutaraldehyde for 10 minutes. After fixation, the cells were washed twice with PBS and then permeabilized by adding cold 0.1% Triton X-100 for 5 minutes. Cells were washed twice with 0.1% BSA/PBS and stained with PE-HbF antibody (BD) for 40 minutes at room temperature (with protection from light). Finally, the cells were washed three times with 0.1% BSA/PBS and passed through a […] cell strainer (Falcon). F-cell % was analyzed by flow cytometry (LSRII-18P, BD).
50 μl of whole blood was lysed in 200 μl ddH2O and centrifuged for 5 minutes at 13,000 rpm to extract the hemolysate. HPLC was performed according to a previously described protocol^22.
For hypoxia treatment, whole blood was incubated in a hypoxic incubator chamber (3% 02) for 30 minutes. […] of whole blood (with or without hypoxia) was used to make blood smears on slides. Slides were air-dried and then stained with Liu-stain before quantifying the percentage of sickle-shaped cells.
To further evaluate the therapeutic potential of AS-28 for treating hemoglobinopathies, SCD mice (an SCD disease animal model generated by the laboratory of Prof. Tim Townes, University of Alabama) were used to examine whether AS-28 treatment could relieve anemia in SCD mice. Different dosages of AS-28 were administered to 6-8 week-old SCD mice over four weeks. After four weeks of oral gavage, blood samples from the treated SCD mice were collected for several biochemical analyses (FIG. 5). […] Reticulocyte (RET), white blood cell (WBC) and neutrophil (NEUT) values were equivalent between AS-28-treated and mock-treated SCD mice. […] A diagnostic indicator of SCD is the characteristic sickle-shaped morphology of red blood cells under hypoxia.

[8] = system: GATA1; assay: RT-qPCR of γ-globin transcription regulators in human primary erythroid cells: GATA1; format: cell-based; conditions: AS-28 0.5 μM
Experimental: (§3) The total RNAs were isolated from human primary erythroid cells in culture without (Mock) and with (AS-28) treatment by AS-28, and analyzed by RT-qPCR. N=4 biological experiments, *, p<0.05; ***, p<0.001.
as §2
(§4) In order to examine whether AS-28 would cause cellular toxicity, the gene expression profiles of human primary erythroid cells in culture were compared by RNA-sequence analysis. Several candidate genes, encoding known γ globin gene regulators were selected from the gene list of RNA-sequence data (fold change >1.4) for validation by RT-qPCR (FIG. 7). […] In addition, AS-28 inhibited the expression of γ globin repressor c-MYB (0.5-fold).

[9] = system: NFE2L2; assay: RT-qPCR of γ-globin transcription regulators in human primary erythroid cells: NFE2L2; format: cell-based; conditions: AS-28 0.5 μM
Experimental: as §3, §2, §4

[10] = system: c-MYB; assay: RT-qPCR of γ-globin transcription regulators in human primary erythroid cells: c-MYB; format: cell-based; conditions: AS-28 0.5 μM
Experimental: as §3, §2, §4

[11] = system: human primary erythroid cells; assay: RNA-sequence gene expression profile with Ingenuity Pathways Analysis; format: cell-based; conditions: human primary erythroid cells treated with AS-28
Experimental: The RNA-sequence data was analyzed by Ingenuity Pathways Analysis (IPA). The top cellular pathways in the primary erythroid cells affected by AS-28 are listed here. DEGs: Fold change ≥1.4, p<0.05.
as §4
To reveal the global effect of AS-28 on human primary erythroid cells, the differentially expressed genes (DEGs) from the RNA-sequence data (fold change ≥1.4 and p<0.05) were selected for analysis by Ingenuity Pathways Analysis (IPA).

[12] = in vivo; conditions: rat
Source text: The abbreviations as defined as follows: IV—intravenous; PO—per-os (oral); T1/2—half-life; CL—clearance; Vss—steady-state distribution volume; AUC(0-inf)—area under the curve; F—bioavailability; ND—not detected.

CCCC(=O)[O-].[Na+] [NaB, sodium butyrate, reference compound]
expression level of BCL11A protein (in words) [1]: significantly decreased

CCN1CCN(c2nc(Nc3cccc(NC(=O)C#Cc4ccc(C)cc4)c3)c3ncn(CC)c3n2)CC1 [AS-28, 3-p-Tolyl-propynoic acid {3-[9-ethyl-2-(4-ethylpiperazin-1-yl)-9H-purin-6-ylamino]phenyl}amide]
water solubility [2]: improved | γ-globin mRNA expression activation ([3]; 0.5 μM): 3.5 fold | γ-globin induction ([3]; 1 μM and 2 μM): reduced | cytotoxicity ([4]; 0.5 μM): without inducing significant cytotoxicity | cytotoxicity ([4]; 1 μM and 2 μM): cell cytotoxicity | γ-globin mRNA expression elevation [5]: at least 2 fold | cytotoxicity [6]: only minor cytotoxicity | expression level of BCL11A protein (in words) [1]: significantly decreased | reduction of BCL11A protein levels ([1]; FIG. 4): 50% | reduction of BCL11A protein levels ([1]; FIG. 11): 60% | hemoglobin levels (HGB) vs mock-treated control [7]: slightly increased | neutrophil (NEUT) values vs mock-treated [7]: equivalent | percentage of F-cells (flow cytometry) [7]: elevated | percentage of HbF (HPLC) [7]: significantly increased | percentage of sickle-shaped cells in blood smears under hypoxia [7]: significantly decreased | red blood cell (RBC) numbers vs mock-treated control [7]: slightly increased | reticulocyte (RET) values vs mock-treated [7]: equivalent | white blood cell (WBC) values vs mock-treated [7]: equivalent | GATA1 expression (γ globin activator), RT-qPCR vs mock [8]: 1.5 fold | NFE2L2 expression (γ globin activator), RT-qPCR vs mock [9]: 1.5 fold | c-MYB expression (γ globin repressor), RT-qPCR vs mock [10]: 0.5 fold | top 5 canonical pathways affected (IPA of DEGs, fold change ≥1.4, p<0.05) [11]: does not include the cell toxicity-related pathways | bioavailability [12]: ~25%
